Measurements taken from patent US11458112B2, “Compositions and methods for inducing defecation” (Dignify Therapeutics, LLC, priority 2019, dated 2022).
Marks after values point to notes of the source that are not given here.

Key:
[1] = tested on: anesthetized spinal intact rats; assay: Rectal pressure (balloon catheter) after intrarectal capsaicin solution in anesthetized spinal intact rats; format: in vivo, rat
Experimental: (§1) General: In vivo studies were performed in anesthetized, acute spinal cord injured (SCI) rats, anesthetized spinal intact rats, and awake chronic spinal cord injured rats. Adult female and male Sprague Dawley rats (Charles River, N.C.; 250-650 g) were housed at an AAALAC approved facility in cages (1-3/cage) with free access to water and food in a colony room that was maintained on a 12 hr/12 hr light/dark cycle.
(§2) For all rectal contractility studies, animals were anesthetized with urethane (1.0-1.4 g/kg subcutaneous injection). Surgical procedures were then performed with the addition of isoflurane anesthesia (0.05-1.5% in O2) as needed.
(§3) Rectal Contractility: Rectal pressures were measured via a latex balloon catheter (length 1.5-4 cm) inserted (˜4 cm) into the distal rectal region. The catheter was connected to a pressure monitoring system. […] Parameters measured included peak rectal pressure response, duration of time above baseline activity (in the 1st 5 min after drug administration), area under the curve (measured during the 1st 5 min after drug administration) and the number of contractile events after vehicle and drug administration.
(§4) Dosing: Intrarectal capsaicin was administered in a dose range of 0.1-2% wt/vol. Capsaicin was dissolved in 95% ethanol at 50-100 mg/mL and then diluted to 2-20 mg/mL with either saline or water to form a suspension and administered intrarectally as a solution using a micropipette, blunt tip tube (22 G) or as a small solution-soaked cotton ball (3-5 mm diameter). Vehicle doses were prepared using the same concentrations of ethanol in water or saline.
Methods: Capsaicin was administered to anesthetized spinal intact male and female rats (N=4 males and 1 female) instrumented for rectal pressure recording via a balloon catheter inserted into the rectum 2-4 cm from the anus. Capsaicin was administered as 0.2% solution (0.05-0.32 mL of a 2 mg/ml solution in 4.7 or 9.5% ethanol/saline) via a PE50 tube that was inserted into the rectum alongside the balloon catheter. For comparison, vehicle was administered to all rats using the same techniques.
Methods: Capsaicin was administered to an anesthetized spinal intact male rat instrumented for rectal pressure recording via a balloon catheter inserted into the rectum 2-4 cm from the anus. Capsaicin was administered as 0.2% solution (0.2%, 0.25 mL) in ethanol/saline via a PE50 tube that was inserted into the rectum alongside the balloon catheter. Vehicle was administered to all rats using the same techniques. Administration of capsaicin solution is indicated by filled arrow in FIG. 3.

conscious cSCI rats = assay: Defecation in metabolism cages after intrarectal dosing in conscious chronic spinal cord injured rats; format: in vivo, rat; conditions: for Number of fecal pellets / Total fecal weight: 0.1 mL intrarectal, within 10 min of dosing, N=6, mean + SD
Experimental: as §1
For chronic SCI model preparation, animals were anesthetized with a mixture of ketamine/xylazine (50-100 mg/kg and 5-10 mg/kg intraperitoneal, respectively), the skin and muscle on the dorsal side at the level of the thoracic vertebrae were incised, and the spinal cord was carefully exposed by a laminectomy and transected at either T3-T4 or T8-T10 spinal level. Gelfoam® was placed at the incision site and the muscle and skin overlying the vertebrae were closed with wound clips. The animal recovered from surgery for 7-10 weeks before being studied.
Defecation in awake animals was monitored in metabolism cages. Animals were habituated to handling and the metabolism cages on 2-4 occasions prior to dosing and were then randomized to a treatment arm. Rats were weighed and placed into metabolism cages for 10 min prior to intrarectal administration of vehicle or capsaicin. The number of fecal pellets and timing of events were recorded by trained personnel that were blinded to treatment. Fecal weight is weighed at 10 and 30 min post dosing. Animals were re-tested 2-3 days later in a cross over design.
as §4
Methods: Defecation in rats was monitored in metabolism cages. Chronic spinal cord injured (cSCI) rats were habituated to handling and the metabolism cages on 2-4 occasions before dosing, then randomized to the treatment arm. Rats were weighed and placed into metabolism cages for 10 min prior to receiving an intrarectal dose of vehicle or capsaicin. Since manual stimulation during intrarectal dosing in conscious rats can induce defecation, the tip of a small cotton swab was inserted into the anus prior to dose administration, to stimulate natural defecation of any fecal pellets that were located in the region of the anal sphincter. […] Once the anal sphincter had ceased contracting/relaxing (15-90 s) a fine catheter (22 G soft/flexible blunt tip catheter) was used to dose the vehicle or capsaicin, as this method produced little manual stimulation. Capsaicin was prepared as a 0.2 or 2% solution (2 or 20 mg/ml in diluted ethanol/water; vehicle corresponding to each dose concentration was 1.9 and 19% ethanol/water, respectively). Dose volumes were 0.1 mL and administered via the catheter inserted ˜1 inch through the anus into the rectum. The number of fecal pellets and timing of events were recorded by trained personnel blinded to the treatment. Fecal weight was recorded at 10 and 30 min post dosing. Animals were re-tested 2-3 days later in a cross over design.

[2] = tested on: anesthetized acute T9-transected SCI rats; assay: Rectal pressure after intrarectal capsaicin-soaked cotton ball in anesthetized acute SCI rats; format: in vivo, rat; conditions: cotton ball soaked in 50 uL of 0.2% solution, 2 female rats
Experimental: as §1
For the acute SCI model, animals were anesthetized with urethane (1.0-1.4 g/kg subcutaneous injection), the skin and muscle on the dorsal side at the level of the thoracic vertebrae were incised, and the spinal cord was carefully exposed by a laminectomy and transected at T8-T10 spinal level. Gelfoam® was placed at the incision site and the muscle and skin overlying the vertebrae were closed with wound clips. The spinal cord was transected at least 60 min before starting the experimental protocol.
as §2, §3
Dosing: Intrarectal capsaicin was administered in a dose range of 0.1-2% wt/vol. […]
Methods: Capsaicin was administered to 2 anesthetized acute T9-transected SCI female rats instrumented for rectal pressure recording via a balloon catheter inserted into the rectum 2-4 cm from the anus. […] Top and bottom traces in FIG. 4 were recorded from separate rats.

[3] = tested on: healthy subjects and subjects having irritable bowel syndrome (IBS); conditions: concentrations of 0.01% and 0.1%, both groups; cited from earlier work
[4] = 0.2% capsaicin solution intrarectal
[5] = 0.2%, 0.25 mL intrarectal, one male rat (Example 3)

COc1cc(CNC(=O)CCCC/C=C/C(C)C)ccc1O [Capsaicin, 8-methyl-N-vanillyl-6-nonenamide]
response to repeat dosing ([1]; 0.2% capsaicin repeated 20 min after the initial dose): evoked a similar response | duration of rectal pressure increase [1, 4]: 5 min | onset time of rectal pressure increase [1, 4]: 1 to 2 min | rats with transient rectal pressure increase ([1]; 0.2% capsaicin solution intrarectal, 0.05-0.32 mL, N=4 males and 1 female): 5 of 5 | expulsion of rectal balloon catheter [1, 5]: expelled from the rectum through the anus | onset of increase in rectal pressure [1, 5]: ≤ 1 min | number and total weight of fecal pellets expelled compared to vehicle (conscious cSCI rats; 0.2 or 2% intrarectal): significantly increased | time to completion of defecation (conscious cSCI rats; 0.2 or 2% intrarectal): ≤ 10 min | time to defecation (conscious cSCI rats; 0.2 or 2% intrarectal): ≤ 5 min | Number of fecal pellets (conscious cSCI rats; Capsaicin 0.2%): 2.17 + 0.84 ^+ | Total fecal weight (conscious cSCI rats; Capsaicin 0.2%): 1.169 + 0.0489 g | Number of fecal pellets (conscious cSCI rats; Capsaicin 2%): 2.00 + 0.68 ^+ | Total fecal weight (conscious cSCI rats; Capsaicin 2%): 1.265 + 0.414 * g | defecation between 10-30 min post-dosing (conscious cSCI rats; any group): No defecation was observed | duration of rectal pressure increase [2]: < 5 min | onset of rectal pressure increase [2]: < 2 min | rats with capsaicin-induced rectal pressure increase [2]: both rats | reported sensations following intrarectal administration [3]: discomfort and “an urge to defecate”, but not defecation
